≈ marks a conversion by molar mass, not a printed value. Like-named read-outs stand apart in the source and are kept apart here.

The IC50 is the concentration needed to halve the response being measured.

Data set [1] has as its system L1210 leukemia cells. Nature of the data set: cells. In kind it is cell-based, mouse. As to conditions: for IC50: Mus musculus. How it is done: The cytotoxic action of the compounds can be established in various test systems such as, for example, in the soft agar colony test on mouse leukemia cells in vitro.
Formation of colonies of L1210 leukemia cells in soft agar:
In this test, substances having cytostatic activity bring about a reduction in the observed number of colonies compared with an untreated control. The details of the test procedure are as follows:
500 L1210 leukemia cells per plate are incubated with various concentrations of the compound of the formula II, obtained as in Example 3, as test substance at 37° C. for 1 hour. The cells are then washed twice with McCoy 5A medium and finally, after addition of 0.3% agar, poured into Petri dishes. Controls are incubated merely with fresh medium. In addition, in place of the incubation for 1 hour, various concentrations of the test substance are admixed to the upper agar layer, in order thus to acheive continuous exposure of the cells throughout the incubation time. After the agar has solidified, the plates are incubated in an incubator at 37° C. for 7 days (5% CO2, 95% relative humidity). The number of resultant colonies with a diameter >60μ is then counted. The results are expressed as the quotient of the number of colonies on treated agar plates and the number of colonies on the untreated control. The IC50 was obtained, as a measure of the activity of the test substance, from the dose-effect curve thus obtained. The comparison substance used in this test is the cytostatic adriamycin.

The conditions of data set [2]: in words; cited from earlier work.
The test system of data set [3] is leukemia cells. Conditions: cited from earlier work.
Where [4] appears, read: L1210, 168 h, continuous exposure, substance in upper agar layer, 7 days at 37° C., read-out: Stem cell assay cont. IC50.
The mark [5] stands for this setting: L1210, incubation for 1 hour at 37° C., then washed, 7 days in agar, read-out: Stem cell assay 1 h IC50.

Regarding `COc1cccc2c1C(=O)c1c(O)c3c(c(O)c1C2=O)C[C@@](O)(C(=O)CO)C[C@@H]3O[C@H]1C[C@H](N)[C@H](O)[C@H](C)O1` [Adriamycin], the IC50 was determined as 0.02 µg/mL (≈ 0.0368 µM) in data set [1] (setting [4]) and 0.04 µg/mL (≈ 0.0736 µM) in data set [1] (setting [5]).

For the compound `CC=C1C2=CCCN3C(=O)OC(C1O)C23` (stereo not shown) [Streptazoline], the “cytotoxicity (assessment)” value in data set [1] was “no cytotoxicity worthy of note”. In addition, the IC50 in data set [1] (setting [4]) and in data set [1] (setting [5]) was 10 µg/mL (≈ 48.3 µM) throughout. Moreover, the antibiotic action result in data set [2] is given as “only a very weak antibiotic”. Further, in data set [3], the cytotoxic action result is on record as “no cytotoxic action”.

Take `CC1C2=C(C(=O)c3c(O)ccc(O)c3C2=O)[C@@H]2CCN3C(=O)O[C@@H]4[C@@H](O)C1=C2[C@@H]43` (stereo partly shown) [Test substance]: in data set [1], the “cytotoxicity (assessment)” value is “cytotoxicity comparable to that of adriamycin”. Moreover, the IC50 in data set [1] (setting [4]) was found to be 0.04 µg/mL (≈ 0.101 µM); in data set [1] (setting [5]) it was 0.26 µg/mL (≈ 0.658 µM).
